Assay results from patent US8017140B2, “Drug-delivery stent formulations for restenosis and vulnerable plaque” (Advanced Cardiovascular System, Inc., priority 2004, dated 2011).

Tested on: thin-cap fibroatheroma (TCFA)
Assay: drug-eluting stent implants in hypercholesterolemic rabbit model of human thin-cap fibroatheroma
Assay type: in vivo
Conditions: 28 days; compared to unstented (de novo) TCFAs
Protocol: The MULTI-LINK Penta™ 13 mm was the platform for all DES and metallic stents. Both a slow release and fast release formulation of each drug were tested and the results were evaluated at 28 days. In both FIGS. 4 and 5, the test results concerning the slow release formulation were labeled with “s”, the test results concerning the fast release formulation were labeled with “f”, and the test results data concerning a formulation having both a slow and a fast release of an agent are labeled with “s+f.”

Row | Compound | percent lipid area | total fibrous cap thickness
1 | C[C@]12CC[C@@H]3c4ccc(O)cc4CC[C@H]3[C@@H]1CC[C@@H]2O [beta-estradiol, 17-beta-estradiol] | reduce | increase
2 | CO[C@H]1C[C@@H]2CC[C@@H](C)[C@@](O)(O2)C(=O)C(=O)N2CCCC[C@H]2C(=O)O[C@H]([C@H](C)C[C@@H]2CC[C@@H](OCCO)[C@H](OC)C2)CC(=O)[C@H](C)/C=C(\C)[C@@H](O)[C@@H](OC)C(=O)[C@H](C)C[C@H](C)/C=C/C=C/C=C/1C [everolimus, 40-O-(2-hydroxy)ethyl-rapamycin] | reduce | increase
